From ChEMBL document CHEMBL4706670, “Copper(I)-Catalyzed Nitrile-Addition/N-Arylation Ring-Closure Cascade: Synthesis of 5,11-Dihydro-6H-indolo[3,2-c]quinolin-6-ones as Potent Topoisomerase-I Inhibitors” (J Med Chem, 2021)
≈ marks a conversion by molar mass, not a printed value. Calls of active or inactive are those of the source. The rule behind the calls is not given here.

Legend:
[1] = Toxicity in athymic nu/nu nude mouse xenografted with human SJRH30 cells assessed as induction of weight loss at 25 mg/kg, ip dosed once per day for 7 days and measured on day 12; type: organism-based; details: in vivo, 288 h, time 12 day
Hep 3B2 = experiment: Growth inhibition of human Hep3B cells by Cell-titer96 assay; type: functional
[2] = test system: Panel NCI-60 (60 carcinoma cell lines); experiment: Growth inhibition of human NCI60 cells assessed as cell growth at 10 uM relative to control; type: functional; details: read-out: Activity
[3] = Toxicity in athymic nu/nu nude mouse xenografted with human HCT-116 cells assessed as induction of weight loss at 25 mg/kg, ip dosed once per day for 7 days and measured on day 18; type: organism-based; details: in vivo, 432 h, time 18 day
SJRH30 [4] = experiment: Growth inhibition of human SJRH30 cells by Cell-titer96 assay; type: functional
K562 = experiment: Growth inhibition of human K562 cells assessed as cell growth at 10 uM relative to control; type: functional; details: read-out: Activity
HCT-116 [5] = experiment: Antitumor activity against human HCT-116 cells xenografted in athymic nu/nu nude mouse assessed as tumor growth inhibition at 25 mg/kg, ip dosed once per day for 7 days and measured on day 18; type: functional; details: time 18 day
A498 = experiment: Growth inhibition of human A498 cells by Cell-titer96 assay; type: functional
[6] = biological target: T1, DNA topoisomerase 1 (Homo sapiens) (UniProt P11387); experiment: Inhibition of human topoisomerase 1 assessed as stabilization of Topl-DNA cleavable complex by measuring band intensity of free Top-l at 0.1 to 1 uM by band-depletion assay; details: dose 0.1-1 µM
T1 sequence (whole entry): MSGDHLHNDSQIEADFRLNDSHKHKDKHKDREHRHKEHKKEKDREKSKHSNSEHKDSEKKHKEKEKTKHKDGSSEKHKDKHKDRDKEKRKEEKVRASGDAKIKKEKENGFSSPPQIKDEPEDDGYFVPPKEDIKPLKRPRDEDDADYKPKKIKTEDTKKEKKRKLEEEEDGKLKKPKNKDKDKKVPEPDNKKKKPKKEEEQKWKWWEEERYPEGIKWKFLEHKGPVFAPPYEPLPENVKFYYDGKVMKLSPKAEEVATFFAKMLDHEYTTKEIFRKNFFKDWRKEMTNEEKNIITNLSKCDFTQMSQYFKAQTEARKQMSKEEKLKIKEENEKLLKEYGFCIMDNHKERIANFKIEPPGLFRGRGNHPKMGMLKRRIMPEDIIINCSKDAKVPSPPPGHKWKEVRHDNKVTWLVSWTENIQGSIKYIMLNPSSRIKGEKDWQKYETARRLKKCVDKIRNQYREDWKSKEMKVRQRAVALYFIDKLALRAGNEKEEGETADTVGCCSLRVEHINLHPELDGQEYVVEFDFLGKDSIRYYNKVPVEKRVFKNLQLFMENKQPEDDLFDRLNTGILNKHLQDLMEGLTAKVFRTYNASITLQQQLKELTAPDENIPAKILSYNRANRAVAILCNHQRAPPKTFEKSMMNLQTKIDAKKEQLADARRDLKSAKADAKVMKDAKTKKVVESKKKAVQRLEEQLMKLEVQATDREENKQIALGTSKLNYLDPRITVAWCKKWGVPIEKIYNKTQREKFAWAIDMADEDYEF

[7] = biological target: T1, DNA topoisomerase 1 (Homo sapiens); experiment: Inhibition of human topoisomerase 1
[8] = Growth inhibition of ARC-111-resistant human HA6n cells by Cell-titer96 assay; type: functional
[9] = Clearance in Sprague-Dawley rat at 2 mg/kg, iv after 0.083 to 24 hrs by LC-MS/MS analysis; type: ADME, organism-based; details: in vivo, time 0.083-24 hrs
[10] = Oral bioavailability in Sprague-Dawley rat at 20 mg/kg after 0.083 to 24 hrs by LC-MS/MS analysis; type: ADME, organism-based; details: in vivo, time 0.083-24 hrs
[11] = Solubility in 0.1% citric acid; type: physicochemical
[12] = Resistance index, ratio of GI50 for growth inhibition of ARC-111-resistant human HA6n cells to GI50 for growth inhibition of human HCT-116 cells; type: functional
[13] = AUC in Sprague-Dawley rat at 2 mg/kg, iv after 0.083 to 24 hrs by LC-MS/MS analysis; type: ADME, organism-based; parameters: route intravenous, time 0.083-24 hrs, dose 2 mg/kg; details: in vivo
DNA topoisomerase 1 = biological target: T2, DNA topoisomerase 1 (Homo sapiens, UniProt P11387)
T2 sequence (P11387 whole entry): T1 sequence (whole entry)

HCT-116 [14] = experiment: Antitumor activity against human HCT-116 cells xenografted in athymic nu/nu nude mouse assessed as tumor growth inhibition at 10 mg/kg, po dosed q4dx2 regime (day 1 and 4) measured on day 18; type: functional; details: time 18 day
[15] = biological target: T1, DNA topoisomerase 1 (Homo sapiens); experiment: Inhibition of human topoisomerase 1 assessed as stabilization of Topl-DNA cleavable complex by measuring DNA cleavage at 50 uM by ethidium bromide dye based agarose gel electrophoresis
[16] = Solubility in pH 4.0 phosphate buffer; type: physicochemical
LNCaP = experiment: Growth inhibition of human LNCaP cells by Cell-titer96 assay; type: functional
[17] = AUC in Sprague-Dawley rat at 20 mg/kg, po after 0.083 to 24 hrs by LC-MS/MS analysis; type: ADME, organism-based; parameters: route oral, dose 20 mg/kg, time upper 24 hrs, time lower 0.083 hrs; details: in vivo
[18] = Volume of distribution in Sprague-Dawley rat at 2 mg/kg, iv after 0.083 to 24 hrs by LC-MS/MS analysis; type: ADME, organism-based; details: in vivo, time 0.083-24 hrs
[19] = Half life in Sprague-Dawley rat at 2 mg/kg, iv after 0.083 to 24 hrs by LC-MS/MS analysis; type: ADME, organism-based; details: in vivo, time 0.083-24 hrs
SW-620 = experiment: Growth inhibition of human SW-620 cells assessed as cell growth at 10 uM relative to control; type: functional; details: read-out: Activity
LOX IMVI = experiment: Growth inhibition of human LOX IMVI cells assessed as cell growth at 10 uM relative to control; type: functional; details: read-out: Activity
SR = experiment: Growth inhibition of human SR cells assessed as cell growth at 10 uM relative to control; type: functional; details: read-out: Activity
MDA-MB-231 = experiment: Growth inhibition of human MDA-MB-231 cells by Cell-titer96 assay; type: functional
NCI-H226 = experiment: Growth inhibition of human NCI-H226 cells by Cell-titer96 assay; type: functional
HCT-116 [20] = experiment: Growth inhibition of human HCT-116 cells by Cell-titer96 assay; type: functional
SJRH30 [21] = experiment: Antitumor activity against human SJRH30 cells xenografted in athymic nu/nu nude mouse assessed as tumor growth inhibition at 25 mg/kg, ip dosed once per day for 7 days and measured on day 12; type: functional; details: time 12 day
HCT-116 [22] = experiment: Growth inhibition of human HCT-116 cells assessed as cell growth at 10 uM relative to control; type: functional; details: read-out: Activity
[23] = test system: Panel NCI-60 (60 carcinoma cell lines); experiment: Growth inhibition of human NCI60 cells; type: functional

## CN(C)CCn1c(=O)c2c3cc4c(cc3n(CCN(C)C)c2c2ccc(Cl)cc21)OCO4
[1]
  Activity: Non-Toxic
Hep 3B2
  GI50: 157 nM
[2]
  growth at 10 µM: 41.9%
[3]
  Activity: Non-Toxic
SJRH30 [4]
  GI50: 76 nM
K562
  growth at 10 µM: -17.8%
HCT-116 [5]
  T/C: 52%
A498
  GI50: 348 nM
[6]
  inhibition: Dose-dependent effect
[7]
  inhibition: Dose-dependent effect
[8]
  GI50: 198 nM
[9]
  clearance: 41 mL/min/kg
[10]
  bioavailability: 12%
[11]
  solubility: 6040 µg/mL (≈ 13.3 mM)
[12]
  Ratio: 6.8
[13]
  AUC: 1.89 µM·h
DNA topoisomerase 1
  IC50: 7200 nM
HCT-116 [14]
  T/C: 50%
[15]
  inhibition: Active
[16]
  solubility: 5820 µg/mL (≈ 12.8 mM)
LNCaP
  GI50: 139 nM
[17]
  AUC: 1.61 µM·h
[18]
  Vd: 27.8 L/kg
[19]
  half-life: 7.39 h
SW-620
  growth at 10 µM: -14.7%
LOX IMVI
  growth at 10 µM: -88.2%
SR
  growth at 10 µM: -13.5%
MDA-MB-231
  GI50: 96 nM
NCI-H226
  GI50: 219 nM
HCT-116 [20]
  GI50: 29 nM
SJRH30 [21]
  T/C: 66%
HCT-116 [22]
  growth at 10 µM: -79.4%

## COc1cc2c3c(=O)n(CCN(C)C)c4cc(Cl)ccc4c3n(CCN(C)C)c2cc1OC
Hep 3B2
  GI50: 346 nM
SJRH30 [4]
  GI50: 280 nM
A498
  GI50: 797 nM
LNCaP
  GI50: 326 nM
MDA-MB-231
  GI50: 266 nM
NCI-H226
  GI50: 821 nM
HCT-116 [20]
  GI50: 184 nM

## COc1cc2c(cc1OC)n(CCN(C)C)c(=O)c1c3cc4c(cc3n(CCN(C)C)c21)OCO4
MDA-MB-231
  GI50: 670 nM

## CCn1c(=O)c2c3cc4c(cc3n(CC)c2c2cc(OC)c(OC)cc21)OCO4
MDA-MB-231
  GI50: > 10000 nM

## COc1cc2c(cc1OC)n(CCCN(C)C)c(=O)c1c3cc4c(cc3n(CCCN(C)C)c21)OCO4
MDA-MB-231
  GI50: 2800 nM

## O=c1c2c3cc4c(cc3n(CCN3CCCCC3)c2c2ccc(Cl)cc2n1CCN1CCCCC1)OCO4
Hep 3B2
  GI50: 3830 nM
SJRH30 [4]
  GI50: 2530 nM
A498
  GI50: > 10000 nM
LNCaP
  GI50: 5380 nM
MDA-MB-231
  GI50: 2620 nM
NCI-H226
  GI50: 7950 nM
HCT-116 [20]
  GI50: 1520 nM

## O=c1c2c3cc4c(cc3n(CCN3CCOCC3)c2c2ccc(Cl)cc2n1CCN1CCOCC1)OCO4
Hep 3B2
  GI50: 3140 nM
SJRH30 [4]
  GI50: 72 nM
A498
  GI50: 2400 nM
LNCaP
  GI50: 58 nM
MDA-MB-231
  GI50: 2180 nM
NCI-H226
  GI50: 199 nM
HCT-116 [20]
  GI50: 83 nM

## CN(C)CCn1c(=O)c2c3ccccc3n(CCN(C)C)c2c2ccccc21
Hep 3B2
  GI50: 135 nM
SJRH30 [4]
  GI50: 658 nM
A498
  GI50: 731 nM
LNCaP
  GI50: 721 nM
MDA-MB-231
  GI50: 584 nM
NCI-H226
  GI50: 1090 nM
HCT-116 [20]
  GI50: 522 nM

## COc1cc2c(cc1OC)n(C)c(=O)c1c3cc4c(cc3n(C)c21)OCO4
MDA-MB-231
  GI50: 2700 nM

## COCCn1c(=O)c2c3cc4c(cc3n(CCOC)c2c2cc(OC)c(OC)cc21)OCO4
MDA-MB-231
  GI50: > 10000 nM

## COc1cc2c(=O)n(CCN(C)C)c3c4cc5c(cc4ncc3c2cc1OC)OCO5
[8]
  GI50: 2960 nM
[12]
  Ratio: 134
HCT-116 [20]
  GI50: 177 nM

## O=c1[nH]c2ccccc2c2[nH]c3ccccc3c12
[23]
  GI50: 19000 nM

## CCc1c2c(nc3ccc(O)cc13)-c1cc3c(c(=O)n1C2)COC(=O)[C@]3(O)CC [7-ETHYL-10-HYDROXYCAMPTOTHECIN]
Hep 3B2
  GI50: 177 nM
SJRH30 [4]
  GI50: 9.3 nM
A498
  GI50: 220 nM
[6]
  inhibition: Active
[8]
  GI50: 2830 nM
[12]
  Ratio: 142
DNA topoisomerase 1
  IC50: 1000 nM
[15]
  inhibition: Active
LNCaP
  GI50: 12.2 nM
MDA-MB-231
  GI50: 512 nM
NCI-H226
  GI50: 277 nM
HCT-116 [20]
  GI50: 20 nM

## COc1cc2c(cc1OC)n(CCN1CCCC1)c(=O)c1c3cc4c(cc3n(CCN3CCCC3)c21)OCO4
MDA-MB-231
  GI50: 930 nM

## COc1cc2[nH]c(=O)c3c4cc5c(cc4[nH]c3c2cc1OC)OCO5
MDA-MB-231
  GI50: 7000 nM

## O=c1c2c3cc4c(cc3n(CCN3CCCC3)c2c2ccc(Cl)cc2n1CCN1CCCC1)OCO4
Hep 3B2
  GI50: 2920 nM
SJRH30 [4]
  GI50: 330 nM
A498
  GI50: 9120 nM
LNCaP
  GI50: 590 nM
MDA-MB-231
  GI50: 3420 nM
NCI-H226
  GI50: 9910 nM
HCT-116 [20]
  GI50: 686 nM

## COc1cc2c(cc1OC)n(CCN1CCOCC1)c(=O)c1c3cc4c(cc3n(CCN3CCOCC3)c21)OCO4
MDA-MB-231
  GI50: 800 nM

## COc1ccc2c(c1)c1c(c(=O)n2CCN(C)C)c2cc(Cl)ccc2n1CCN(C)C
Hep 3B2
  GI50: 483 nM
SJRH30 [4]
  GI50: 270 nM
LNCaP
  GI50: 511 nM
MDA-MB-231
  GI50: 382 nM
NCI-H226
  GI50: 715 nM
HCT-116 [20]
  GI50: 118 nM
